Data as given in PubChem BioAssay AID248 (DTP/NCI, 2004).
Where “and” joins values, the source holds several entries; their conditions need not be identical. Equal values may be shown once. Toxic doses and inconclusive results are not listed. Rule as the data show it: active = T/C of 150% or more; inactive = T/C below 125%.

System: L1210 leukemia ip in BDF1 mice, survival T/C
Assay: NCI In Vivo Anticancer Drug Screen. Data for tumor model L1210 Leukemia (intraperitoneal) in B6D2F1 (BDF1) mice
Conditions: endpoint: mean survival time, higher = longer survival
How it was run: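 Ratio derived from survival: compound-dosed mice over vehicle-dosed mice, all bearing a transplantable tumor.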

[1] = dose: 100.0 mg/kg/injection, schedule: Q01DX001 (ip), vehicle: saline
[2] = dose: 100.0 mg/kg/injection, schedule: Q04DX003 (ip), vehicle: Klucel (hydroxypropylcellulose) (HPC)
[3] = dose: 200.0 mg/kg/injection, schedule: Q04DX003 (ip), vehicle: Klucel (hydroxypropylcellulose) (HPC)
[4] = dose: 400.0 mg/kg/injection, schedule: Q04DX003 (ip), vehicle: Klucel (hydroxypropylcellulose) (HPC)
[5] = dose: 25.0 mg/kg/injection, schedule: Q04DX003 (ip), vehicle: saline
[6] = dose: 50.0 mg/kg/injection, schedule: Q01DX009 (ip), vehicle: saline
[7] = dose: 50.0 mg/kg/injection, schedule: Q04DX003 (ip), vehicle: saline
[8] = dose: 100.0 mg/kg/injection, schedule: Q04DX003 (ip), vehicle: saline
[9] = dose: 200.0 mg/kg/injection, schedule: Q01DX001 (ip), vehicle: saline
[10] = dose: 400.0 mg/kg/injection, schedule: Q01DX001 (ip), vehicle: saline
[11] = dose: 200.0 mg/kg/injection, schedule: Q01DX009 (ip), vehicle: Klucel (hydroxypropylcellulose) (HPC)
[12] = dose: 400.0 mg/kg/injection, schedule: Q01DX009 (ip), vehicle: Klucel (hydroxypropylcellulose) (HPC)
[13] = dose: 100.0 mg/kg/injection, schedule: Q01DX009 (ip), vehicle: Klucel (hydroxypropylcellulose) (HPC)
[14] = dose: 100.0 mg/kg/injection, schedule: Q01DX009 (ip), vehicle: saline with Tween-80
[15] = dose: 100.0 mg/kg/injection, schedule: Q04DX002 (ip), vehicle: saline with Tween-80
[16] = dose: 25.0 mg/kg/injection, schedule: Q01DX009 (ip), vehicle: saline with Tween-80
[17] = dose: 50.0 mg/kg/injection, schedule: Q01DX009 (ip), vehicle: saline with Tween-80
[18] = dose: 100.0 mg/kg/injection, schedule: Q04DX003 (ip), vehicle: saline with Tween-80

Measured: T/C

COC(=O)C1C(C(=O)OC)C1(c1ccccc1)c1ccccc1 (centres undefined)
inactive: dose: 100.0 mg/kg/injection, schedule: Q01DX001 (ip), vehicle: steriod suspending solution 95 % of control | dose: 200.0 mg/kg/injection, schedule: Q01DX001 (ip), vehicle: steriod suspending solution 112 % of control | dose: 400.0 mg/kg/injection, schedule: Q01DX001 (ip), vehicle: steriod suspending solution 95 % of control

CCOc1ccc(C(=O)C(C)CN2CCN(C)CC2)cc1 (centres undefined)
inactive: [1] 98 % of control

CC1(C)C2CC3C(=CCCC3C(=O)O)C1C2 (centres undefined)
inactive: [2] 97 % of control | [3] 103 % of control | [4] 95 % of control

Nc1ncnc2c1ncn2CCCCCl
inactive: dose: 12.0 mg/kg/injection, schedule: Q04DX003 (ip), vehicle: saline 93 % of control | dose: 12.5 mg/kg/injection, schedule: Q01DX009 (ip), vehicle: saline 119 % of control | dose: 25.0 mg/kg/injection, schedule: Q01DX009 (ip), vehicle: saline 97 % of control | [5] 107 % of control | [6] 106 % of control | [7] 93 % of control

COC(=O)c1cccc2c1C(Br)C(Br)c1ccccc1-2 (centres undefined)
inactive: [1] 101 % of control | [8] 100 % of control | [9] 98 % of control | dose: 200.0 mg/kg/injection, schedule: Q04DX003 (ip), vehicle: saline 97 % of control | [10] 98 % of control | dose: 400.0 mg/kg/injection, schedule: Q04DX003 (ip), vehicle: saline 94 % of control

N#CC(C#N)=Cc1csc2ccccc12
inactive: [1] 93 % of control | [9] 102 % of control | [10] 102 % of control

O=C(O)c1ccc(N/N=C\c2cc(=O)[nH]c(=O)[nH]2)cc1
inactive: dose: 5.0 mg/kg/injection, schedule: Q01DX001 (ip), vehicle: saline 97 % of control | dose: 10.0 mg/kg/injection, schedule: Q01DX001 (ip), vehicle: saline 97 % of control | dose: 20.0 mg/kg/injection, schedule: Q01DX001 (ip), vehicle: saline 98 % of control | dose: 40.0 mg/kg/injection, schedule: Q01DX001 (ip), vehicle: saline 97 % of control

CC1CCC(C)OCO1 (centres undefined)
inactive: dose: 50.0 mg/kg/injection, schedule: Q01DX009 (ip), vehicle: acetone 97 % of control | dose: 100.0 mg/kg/injection, schedule: Q01DX009 (ip), vehicle: acetone 98 % of control | dose: 200.0 mg/kg/injection, schedule: Q01DX009 (ip), vehicle: acetone 88 % of control

COC(=O)C1CN=NC1C(=O)OC (centres undefined)
inactive: dose: 100.0 mg/kg/injection, schedule: Q04DX003 (ip), vehicle: acetone 98 % of control | dose: 200.0 mg/kg/injection, schedule: Q04DX003 (ip), vehicle: acetone 96 % of control | dose: 400.0 mg/kg/injection, schedule: Q04DX003 (ip), vehicle: acetone 101 % of control

O=C(Nc1ccccc1)N1CC12CCCCC2
inactive: [2] 104 % of control | [11] 98 % of control | [3] 110 % of control | [12] 95 % of control | [4] 100 % of control

Cc1cccc(Cl)c1NC(=O)Nc1cc([N+](=O)[O-])ccc1O
inactive: dose: 25.0 mg/kg/injection, schedule: Q01DX009 (ip), vehicle: Klucel (hydroxypropylcellulose) (HPC) 91 % of control | dose: 50.0 mg/kg/injection, schedule: Q01DX009 (ip), vehicle: Klucel (hydroxypropylcellulose) (HPC) 91 % of control | [13] 96 % of control and 87 % of control | [11] 91 % of control | [12] 88 % of control

O=C(O)[C@@H]1C[C@H]1c1ccccc1
inactive: dose: 25.0 mg/kg/injection, schedule: Q04DX002 (ip), vehicle: saline + alcohol 100 % of control | dose: 50.0 mg/kg/injection, schedule: Q04DX002 (ip), vehicle: saline + alcohol 102 % of control | [14] 89 % of control | dose: 100.0 mg/kg/injection, schedule: Q04DX002 (ip), vehicle: saline + alcohol 109 % of control | [15] 114 % of control | dose: 200.0 mg/kg/injection, schedule: Q01DX009 (ip), vehicle: saline with Tween-80 87 % of control | dose: 400.0 mg/kg/injection, schedule: Q01DX009 (ip), vehicle: saline with Tween-80 92 % of control

Nc1cc(NC(=O)c2ccc(Cl)cc2)ccc1S(=O)(=O)O
inactive: [15] 104 % of control | dose: 200.0 mg/kg/injection, schedule: Q04DX002 (ip), vehicle: saline with Tween-80 93 % of control | dose: 400.0 mg/kg/injection, schedule: Q04DX002 (ip), vehicle: saline with Tween-80 93 % of control

CN(C)CCCCl
inactive: dose: 25.0 mg/kg/injection, schedule: Q01DX Z (ip), vehicle: other 102 % of control | [6] 90 % of control | dose: 50.0 mg/kg/injection, schedule: Q01DX Z (ip), vehicle: other 102 % of control | dose: 75.0 mg/kg/injection, schedule: Q04DX003 (ip), vehicle: saline 101 % of control | dose: 100.0 mg/kg/injection, schedule: Q01DX Z (ip), vehicle: other 92 % of control | dose: 150.0 mg/kg/injection, schedule: Q04DX003 (ip), vehicle: saline 93 % of control

O=C(O)CCC(=O)Nc1cccc(C(F)(F)F)c1
inactive: [13] 103 % of control | [11] 105 % of control | [12] 100 % of control

CCCCCCCCCCOc1ccc(OC)cc1
inactive: dose: 100.0 mg/kg/injection, schedule: Q04DX002 (ip), vehicle: other 103 % of control | dose: 200.0 mg/kg/injection, schedule: Q04DX002 (ip), vehicle: other 95 % of control | dose: 400.0 mg/kg/injection, schedule: Q04DX002 (ip), vehicle: other 106 % of control

CC(C)(C)NC1=NCCO1
inactive: [16] 100 % of control | [17] 102 % of control | [14] 96 % of control | [18] 100 % of control

COc1ccc(OC)c(NC(=O)N(Cc2ccccc2)Cc2ccccc2)c1
inactive: [2] 93 % of control | [3] 87 % of control | [4] 88 % of control

Clc1ccc2c(c1)C(Br)c1cc(Cl)cc(Cl)c1-2 (centres undefined)
inactive: [16] 102 % of control | [5] 102 % of control | [17] 94 % of control | [7] 102 % of control | dose: 100.0 mg/kg/injection, schedule: Q01DX001 (ip), vehicle: acetone 94 % of control | [14] 93 % of control | [8] 91 % of control

CCCCCCCCCCCCCCCSc1ccc(Br)cc1
inactive: [18] 97 % of control | dose: 200.0 mg/kg/injection, schedule: Q04DX003 (ip), vehicle: saline with Tween-80 102 % of control | dose: 400.0 mg/kg/injection, schedule: Q04DX003 (ip), vehicle: saline with Tween-80 94 % of control

O=c1[nH]cnc2ncccc12
inactive: [1] 106 % of control | [9] 104 % of control

NC(=O)c1ccc(NC(=O)CCC(=O)Nc2ccc(C(N)=O)cn2)nc1
inactive: dose: 0.36 mg/kg/injection, schedule: Q01DX Z (ip), vehicle: carboxymethylcellulose (CMC) 105 % of control | dose: 0.55 mg/kg/injection, schedule: Q01DX Z (ip), vehicle: carboxymethylcellulose (CMC) 102 % of control | dose: 0.83 mg/kg/injection, schedule: Q01DX Z (ip), vehicle: carboxymethylcellulose (CMC) 102 % of control | dose: 1.0 mg/kg/injection, schedule: Q01DX Z (ip), vehicle: carboxymethylcellulose (CMC) 105 % of control | dose: 1.25 mg/kg/injection, schedule: Q01DX Z (ip), vehicle: carboxymethylcellulose (CMC) 103 % of control and 114 % of control | dose: 2.0 mg/kg/injection, schedule: Q01DX Z (ip), vehicle: carboxymethylcellulose (CMC) 107 % of control | dose: 2.5 mg/kg/injection, schedule: Q01DX Z (ip), vehicle: carboxymethylcellulose (CMC) 110 % of control | dose: 3.0 mg/kg/injection, schedule: Q01DX Z (ip), vehicle: carboxymethylcellulose (CMC) 95 % of control | dose: 4.0 mg/kg/injection, schedule: Q01DX Z (ip), vehicle: carboxymethylcellulose (CMC) 104 % of control | dose: 5.0 mg/kg/injection, schedule: Q01DX Z (ip), vehicle: carboxymethylcellulose (CMC) 124 % of control and 91 % of control | dose: 10.0 mg/kg/injection, schedule: Q01DX Z (ip), vehicle: carboxymethylcellulose (CMC) 118 % of control
